From BindingDB's records for doi:10.1016/S0960-894X(01)80987-2 (1993)

Test: In vitro test for inhibition of [125I]CCK binding to Cholecystokinin type B receptor from guinea pig cortical membranes was determined

Compound | IC50 [nM]
Cc1cccc(NC(=O)NC2N=C(C3CCC3)c3ccccc3N(C)C2=O)c1 (stereo not drawn) [1-(5-Cyclobutyl-1-methyl-2-oxo-2,3-dihydro-1H-benzo[e][1,4]diazepin-3-yl)-3-m-tolyl-urea] | 30
Cc1cccc(NC(=O)NC2N=C(C3CCCC3)c3ccccc3N(C)C2=O)c1 (stereo not drawn) [1-(5-Cyclopentyl-1-methyl-2-oxo-2,3-dihydro-1H-benzo[e][1,4]diazepin-3-yl)-3-m-tolyl-urea] | 16
Cc1cccc(NC(=O)N[C@H]2N=C(C3CCCCC3)c3ccccc3N(C)C2=O)c1 [1-((S)-5-Cyclohexyl-1-methyl-2-oxo-2,3-dihydro-1H-benzo[e][1,4]diazepin-3-yl)-3-m-tolyl-urea] | 169
